# “Also recorded” adds a separate entry of the source.
# How the values were obtained:
# Assay type in all cases: cell-based
# [1] = system: MDA-MB-231 cells; test: Cell cycle analysis by flow cytometry (PI); details: MDA-MB-231, IC50 dose, 24 h; control 10.42%
# Method: Propidium Iodide Flow Cytometry Kit for Cell Cycle Analysis (Abcam) was used according to manufacturer's instructions. Briefly, MDA-MB 231 cells (2 × 10^5 cells) were seeded in 6-well plates and cultured for 24 h. […] Cells were collected, washed with PBS and centrifuged. Subsequently, the cells were re-suspended and fixed in 66% ethanol on ice for at least 2 h. The cells were stained with a working solution containing propidium iodide (PI) in the dark at 37 °C for 30 min. DNA content of the cells were measured by flow cytometry using FACSCalibur (BD Biosciences, Mountain View, CA). The data were analyzed using the CellQuest software (BD Biosciences).[21]
# [2] = system: MDA-MB-231 cells; test: Cell apoptosis analysis (annexin V-FITC/PI); details: MDA-MB-231, IC50 dose, 24 h
# Method: Annexin-V-FITC Apoptosis Detection Kit (Biovision, USA) was used to determine apoptotic cells according to manufacturer's instructions. Briefly, MDA-MB 231 cells (2 × 10^5 cells) were seeded in 6-well plates and cultured for 24 h. […] Cells were collected, washed with PBS and centrifuged. The cells were re-suspended in 500 μL of 1× binding buffer. 5 μL of annexin V-FITC and 5 μL of propidium iodide (PI […]) were added and the cells were incubated in the dark at room temperature for 5 min. The fluorescence of the stained cells was analyzed by flow cytometry using FACSCalibur (BD Biosciences, Mountain View, CA). The data were analyzed using the CellQuest software (BD Biosciences).[53,54]
# [3] = system: β-tubulin mRNA in MDA-MB-231 cells; test: Tubulin expression assay (real-time PCR); details: MDA-MB-231, IC50 dose, 48 h, normalized to β-actin
# Method: The cells were seeded in a six-well plate at a concentration of 3 × 10^5 cells per well. […] The cells were washed, collected and centrifuged at 2500 rpm for 15 min at 4 °C. The total RNA isolation kit (RNeasy extraction kit – QIAGEN) was used to isolate RNA according to the manufacturer's instructions.
# Gene expression of β-tubulin was determined using iScript One-Step RT-PCR kit with SYBR Green (BIORAD) according to the manufacturer protocol. Primers sequences used for qPCR are illustrated in (Table 5). The genes expression was normalized to β-actin as the housekeeping gene. The protocol used was cDNA synthesis for 10 min at 50 °C, iScript Reverse transcriptase inactivation for 5 min at 95 °C and PCR cycling and detection (30 to 45 cycles): 10 s at 95 °C and 30 s at 55 °C to 60 °C.
structure (smiles),measurement,setting,value
"CCc1cccc2cc(-c3cc(-c4cc(OC)c(OC)c(OC)c4)[nH]c(=O)c3C#N)c(Cl)nc12 [Compound 4c, 4-(2-Chloro-8-ethylquinolin-3-yl)-2-oxo-6-(3,4,5-trimethoxyphenyl)-1,2-dihydropyridine-3-carbonitrile]",cells population at G2 and M phases,[1],22.84%
same,Early Apoptosis (%),[2],7.44 ± 1.59%
same,Late Apoptosis (%),[2],17.1 ± 1.9%
same,Necrosis (%),[2],4.61 + 2%
same,β-tubulin mRNA levels (relative gene expression) vs non-treated cells,[3],notably reduced; also recorded: significantly suppressed; also recorded: markedly reduced
